Among the data in publication PMC9296983, “Synthesis and HDAC inhibitory activity of pyrimidine-based hydroxamic acids” (Beilstein Journal of Organic Chemistry, 2022) are IC50 and melting point values, retold here.

What is called IC50 is the concentration that gives 50% inhibition. Broadly, the melting point is the temperature, or range, at which the solid turns liquid.

The target of one series is T1, HDAC4 (Homo sapiens, UniProt P56524).
T1 construct: made in house
The series is described as follows: HDAC enzyme activity assay (fluorogenic, Boc-Lys(trifluoroacetyl)-AMC substrate), HDAC4. It is filed as biochemical. The settings on record: recombinant HDAC4; BOC-LYS-(TFA)-AMC as substrate, 100 mM TRIS, 300 mM KCl, pH 8.0 buffer, 30 °C. Here is the method:
(§1) Compounds 12–18 and 25–31 were tested as inhibitors of HDAC4 and HDAC8 isoforms according to the procedures described previously. […]. […]
(§2) HDAC enzyme activity assay
Recombinant HDAC4 and 8 were produced as described in [3]. Serial dilutions of the inhibitor in the assay buffer (25 mM Tris -HCl, pH 8.0, 75 mM KCl, 0.001 % Pluronic F-127) were incubated with HDAC in a black 96-well microtiter half -area plate (Greiner) for 60 min at 30 °C. Subsequentl y the reaction was started by the addition of 20 μM Boc -Lys(trifluoroacetyl) -AMC (Bachem) as a substrate.
(§3) After incubation for 60 min at 30 °C, the reaction was stopped by the addition of 1.7 μM SATFMK.
(§4) The deacetylated substrate was transformed into a flu orescent product by the addition of 0.4 mg/m L trypsin (Applichem). The release of AMC was followed in a microplate reader (PheraStar Plus, BMG Labtech) at 450 nm (λ Ex = 350 nm) and correlated to enzyme activity. Dose–response curves were produced with GraphPad Prism and fitted to a four parameters logistic function to obtain IC50 values […]
(§5) in which EA is the enzyme activity at a given inhibitor concentration x; Emax and E0 are the enzyme activities determined at zero and complete inhibition, respectively; IC50 represents the inhibitor concentration at which half the enzyme molecules are inhibited; h is the slope of the curve. […]
(§6) (1 picture or pasted object on this page, not shown here)

The target of the next series is T2, HDAC8 (Homo sapiens, UniProt Q9BY41).
T2 construct: made in house
T2 sequence (Q9BY41 1-377): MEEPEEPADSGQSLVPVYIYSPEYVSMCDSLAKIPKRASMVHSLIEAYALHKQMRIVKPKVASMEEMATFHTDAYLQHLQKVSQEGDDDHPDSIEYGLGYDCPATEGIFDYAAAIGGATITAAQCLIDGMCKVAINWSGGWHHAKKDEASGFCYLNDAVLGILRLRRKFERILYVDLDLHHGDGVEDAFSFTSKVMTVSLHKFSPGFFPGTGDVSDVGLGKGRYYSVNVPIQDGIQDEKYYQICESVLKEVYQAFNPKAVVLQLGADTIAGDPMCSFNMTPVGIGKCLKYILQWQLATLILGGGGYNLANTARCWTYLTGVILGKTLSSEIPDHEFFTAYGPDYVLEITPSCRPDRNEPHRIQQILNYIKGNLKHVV
The series is described as follows: HDAC enzyme activity assay (fluorogenic, Boc-Lys(trifluoroacetyl)-AMC substrate), HDAC8. It counts as biochemical. The settings on record: recombinant HDAC8; BOC-LYS-(TFA)-AMC as substrate, 100 mM TRIS, 300 mM KCl, pH 8.0 buffer, 30 °C. Here is the method: as §1, §2
Recombinant HDAC4 and 8 were produced as described in [3]. […]
HDAC in a black 96-well microtiter half -area plate (Greiner) for 60 min at 30 °C. Subsequentl y the reaction was started by the addition of 20 μM Boc -Lys(trifluoroacetyl) -AMC (Bachem) as a substrate.
as §3, §4, §5, §6

T1 sequence (P56524 whole entry, species assumed): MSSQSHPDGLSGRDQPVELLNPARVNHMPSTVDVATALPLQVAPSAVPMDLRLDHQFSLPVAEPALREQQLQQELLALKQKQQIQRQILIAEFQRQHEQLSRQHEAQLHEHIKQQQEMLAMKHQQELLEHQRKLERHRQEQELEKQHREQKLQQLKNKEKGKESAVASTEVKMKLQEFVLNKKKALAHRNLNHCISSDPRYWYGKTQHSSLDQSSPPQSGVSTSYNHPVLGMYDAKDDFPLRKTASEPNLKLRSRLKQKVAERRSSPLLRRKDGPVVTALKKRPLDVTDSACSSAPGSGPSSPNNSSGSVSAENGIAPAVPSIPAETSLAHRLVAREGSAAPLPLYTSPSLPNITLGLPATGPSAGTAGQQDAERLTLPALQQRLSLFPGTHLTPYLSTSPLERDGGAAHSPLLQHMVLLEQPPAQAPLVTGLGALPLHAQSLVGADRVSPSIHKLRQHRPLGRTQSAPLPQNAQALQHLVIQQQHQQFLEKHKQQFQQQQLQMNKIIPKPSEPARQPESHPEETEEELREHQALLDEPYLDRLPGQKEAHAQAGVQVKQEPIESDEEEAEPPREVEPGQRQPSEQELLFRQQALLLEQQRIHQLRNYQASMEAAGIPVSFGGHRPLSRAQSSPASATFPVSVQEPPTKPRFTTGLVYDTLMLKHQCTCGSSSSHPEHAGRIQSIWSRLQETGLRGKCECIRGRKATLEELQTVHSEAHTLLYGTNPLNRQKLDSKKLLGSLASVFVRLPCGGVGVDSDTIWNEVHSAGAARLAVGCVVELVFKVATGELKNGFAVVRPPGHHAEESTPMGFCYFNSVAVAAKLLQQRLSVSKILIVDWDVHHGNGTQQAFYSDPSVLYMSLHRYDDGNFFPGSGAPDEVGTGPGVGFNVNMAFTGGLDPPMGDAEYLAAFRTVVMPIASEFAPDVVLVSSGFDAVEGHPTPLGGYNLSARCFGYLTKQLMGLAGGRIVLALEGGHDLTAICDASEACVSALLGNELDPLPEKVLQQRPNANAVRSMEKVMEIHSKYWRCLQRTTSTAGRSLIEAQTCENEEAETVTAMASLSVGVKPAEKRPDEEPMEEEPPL

In the case of `CSc1nc(C)cc(OCC(=O)NO)n1` [compound 12], the melting point is 182 to 184 °C. In addition, the IC50 on HDAC4 came to 38 µM. Also, the 50% inhibitory concentration (IC50) at HDAC8 worked out at 28 µM.
As to `CCSc1nc(C)cc(OCC(=O)NO)n1` [compound 13], the melting point was in the range of 175 to 176 °C. In addition, the IC50 on HDAC8 turned out to be 13 µM.
The like results for `C=CCNc1nc(C)cc(OCC(=O)NO)n1` [compound 14] were, in that order, 177 to 179 °C and 15 µM.
The like results for `Cc1cc(OCC(=O)NO)nc(NCc2ccccc2)n1` [compound 15] were, in that order, 168 to 170 °C and 14 µM.
Take `Cc1cc(OCC(=O)NO)nc(N(C)C)n1` [compound 16]: the melting point is 192 to 194 °C. Further, at HDAC8, the IC50 came to 35 µM.
The like results for `Cc1cc(OCC(=O)NO)nc(N2CCCC2)n1` [compound 17] were, in that order, 178 to 180 °C and 13 µM.
The like results for `Cc1cc(OCC(=O)NO)nc(O)n1` [compound 18] were, in that order, 190 to 191 °C (dec.) and 60 µM.
The compound `CSc1nc(C)cc(OCCCC(=O)NO)n1` [compound 25] registered a melting point of 150 to 151 °C. For the same compound, on HDAC4, the half-maximal inhibitory concentration (IC50) is over 50 µM. On HDAC8, the IC50 was determined as 5.65 µM.
The like results for `CSc1nc(C)cc(OCCCCCC(=O)NO)n1` [compound 26] were, in that order, 112 to 113 °C, over 50 µM and 2.05 µM.
On the same counts, the results for `CCCc1c(C)nc(SC)nc1OCC(=O)NO` [compound 27] are 144 to 146 °C, 38 µM and 1.4 µM.
The like results for `CCCc1c(C)nc(SC)nc1OCCCC(=O)NO` [compound 28] were, in that order, 125 to 127 °C, over 35 µM and 2.4 µM.
`CCCc1c(C)nc(SC)nc1OCCCCCC(=O)NO` [compound 29, N-hydroxy-6-[6-methyl-2-(methylthio)-5-propylpyrimidin-4-yloxy]hexanamide]: the 50% inhibitory concentration (IC50) at HDAC4 worked out at 16.6 µM; at HDAC8 it was 1.2 µM.
`CCCc1c(C)nc(SC)n(CC(=O)NO)c1=O` [compound 30, N-Hydroxy-[6-methyl-2-(methylthio) -4-oxo-5-propylpyrimidin-3(4H)-yl]acetamide] had a melting point of 185 to 187 °C. In addition, the IC50 at HDAC4 was over 35 µM. For the same compound, the concentration for half-maximal inhibition (IC50) at HDAC8 was over 35 µM.
In the case of `CCCc1c(C)nc(SC)n(CCCC(=O)NO)c1=O` [compound 31, N-Hydroxy-4-[6-methyl-2-(methylthio) -4-oxo-5-propylpyrimidin-3(4H)-yl]butanamide], the melting point was 133 to 135 °C. Also, the IC50 on HDAC4 was over 35 µM. For the same compound, on HDAC8, the concentration for half-maximal inhibition (IC50) was over 35 µM.
